Results on six molecules are retold here after patent publication US6686354B2, “Agonists and antagonists of peripheral-type benzodiazepine receptors” (Scios, Inc., priority 1998, dated 2004).

The subject of experiment [1] is neonatal rat cardiomyocytes. The experiment is described as follows: Hypertrophic response of neonatal rat cardiomyocytes (conclusions over all readouts). It counts as cell-based.
The subject of experiment [2] is isolated rat heart preparation. Conditions: cited from earlier work.
Experiment [3] deals with isolated working rat heart. Particulars: cited from earlier work.
Experiment [4] has as its system isolated perfused Langendorf rat heart. Particulars: cited from earlier work.
Experiment [5] concerns neonatal rat cardiomyocytes. Nature of the experiment: ANP synthesis (competition binding ELISA of culture supernatants) in neonatal rat cardiomyocytes. It counts as cell-based. On the technique in general: ELISA stands for enzyme-linked immunosorbent assay.
The subject of experiment [6] is neonatal rat cardiomyocytes. Nature of the experiment: Protein synthesis ([3H]phenylalanine incorporation) in neonatal rat cardiomyocytes. It counts as cell-based. The text has this: Neonatal rat ventricular cardiomyocytes were isolated from one or two days old rat pups using the following reagents and isolation procedure:
When cardiomyocytes undergo hypertrophy several biochemical parameters can be monitored. There is an increase in protein synthesis and atrial natriuretic peptide (ANP) synthesis and an upregulation of the β-myosin heavy chain gene. These three parameters were used to assess the effects of ligands of the peripheral-type benzodiazepine receptor (PTBR) upon neonatal rat cardiomyocytes.
Protein synthesis is assessed by including radiolabelled amino acids in the experimental incubation medias (i.e., [^3H]phenylalanine) at the end of the incubation the cell monolayer is washed with phosphate bufered saline, fized with 10% TCA and lysed with 0.25N NaOH. The total cell lysate is then assessed for tritium contant by scintillation spectrometry.
a. Neonatal rat cardiomyocytes were cultured in 24-well plates for 24 hours in serum-free medium. Medium was then removed and replaced with experimental culture medium containing [^3H]phenylalanine (10 μCi/ml) and either the PTBR agonist Ro5-4864 (RBI, MA, USA) in a concentration range of 10^−12-10^−8 M, or the PTBR antagonist PK11195 (RBI, MA, US) in a concentration range of 10^−12-10^−8 M. Control incubations received [^3H]phenylalanine (10 μCi/ml) containing medium alone. Cell cultures were returned to the incubator for a further 48 hour incubation after which time the cell culture supernatants were harvested for ANP analysis and the cell monolayers were prepared for assessment of tritium incorporation. […] However, at concentrations greater than or equal to 10^−11 M, the PTBR agonist Ro5-4864 caused a three-fold increase in protein synthesis and a five-fold increase in ANP synthesis. Data are expressed as the mean+/−standard deviations of quadruplet samples.
b. Neonatal rat cardiomyocytes were cultured in 24-well plates for 24 hours in serum-free medium. Medium was then removed and replaced with experimental culture medium containing [^3H]phenylalanine (10 μCi/ml) and either the PTBR agonist Ro5-4864 (RBI, MA, USA) in a concentration range of 10^−12-10^−8 M, or the PTBR antagonist PK11195 (RBI, MA, US) at a concentration of 10^−10 M. Control incubations received [^3H]phenylalanine (10 μCi/ml) containing medium alone. Cell cultures were returned to the incubator for a further 48 hour incubation after which time the cell culture supernatants were harvested for ANP analysis and the cell monolayers were prepared for assessment of tritium incorporation. […] Data are expressed as the mean+/−standard deviations of quadruplet samples.

For a further experiment, the system named is human atrial strips. Conditions: cited from earlier work.
The subject of experiment [7] is guinea pig heart preparation. Conditions: cited from earlier work.
Experiment [8] concerns neonatal rat cardiomyocytes. The experiment is described as follows: Morphology of neonatal rat cardiomyocyte cultures (photography). The experiment is classed as cell-based. Particulars: 10^-10 M, serum-free. On the procedure:
When cardiomyocytes undergo hypertrophy, their morphology changes quite drastically. The cells become larger and more spread out so another technique employed to monitor hypertrophic effects on cardiomyocytes is to assess their morphology and document that by photography.
d. Neonatal rat cardiomyocytes were cultures in 6-well plates overnight following isolation. […] FIGS. 10B and 10C show the same cultures following 96 hours of culture and the differenes between control and treated are quite striking.

For another experiment, the system named is β-MHC promoter. The experiment is described as follows: β-MHC promoter-luciferase reporter in neonatal rat cardiomyocytes. The experiment is classed as cell-based. Conditions: greater than or equal to 10^-11 M; 24 hours; normalized to SEAP; FIG. 9. On the procedure:
To monitor the expression of β-MHC, β-MHC promoter-luciferase reporter plasmid was constructed. This plasmid is inserted into the cardiomyocyte cultures by liposome mediated transfection and luciferase activity in cell lysates determined following incubation. The amount of luciferase actvity is directly proportional to the level of transcription of the β-MHC gene.
c. Neonatal cardiomyocytes were cultures in 6-well plates overnight following isolation. The cell monolayers were then transfected with a β-MHC promoter-luciferase reported plasmid and a control plasmid to aid data normalization (pSEAP2 Clontech Corp) using lipofectamine liposome mediated plasmid delivery. Following recovery from the transfection, the cell cultures were treated for 24 hours in the presence and absence of the PTBR agonist Ro5-4864 at 10^−12 M, 10^−11 M and 10^−10 M. The culture supernatants were then harvested for SEAP activity and cell lysates prepared for luciferase assay. […] Data are expressed as the mean+/−standard derivations of triplicate samples.

The conditions of experiment [9]: following intravenous administration; cited from earlier work.
In experiment [10] the test system is isolated cardiac and smooth muscle. Particulars: cited from earlier work.
The conditions of experiment [11]: dogs; cited from earlier work.
Experiment [12] has as its system [3H]diazepam binding to heart tissue. Particulars: cited from earlier work.
A further experiment concerns the target PTBR (Homo sapiens, UniProt P30536). Particulars: cited from earlier work.
[13] abbreviates: isolated perfused Langendorf rat heart.
The mark [14] stands for this setting: 10^-11 M PK11195 (so in the source), Ro5-4864 10^-12-10^-10 M, 48 hour, FIG. 8.
[15] abbreviates: compound alone, 10^-12-10^-8 M, 48 hour incubation, FIG. 7.
The mark [16] stands for this setting: Ro5-4864 at higher concentrations (10^-11-10^-8 M) with 10^-10 M PK11195, FIG. 8.
Setting [17] is: concentrations greater than or equal to 10^-11 M, 48 hour incubation, vs control, FIG. 7.

Chain of PTBR (P30536 whole entry, the tested form may be a part): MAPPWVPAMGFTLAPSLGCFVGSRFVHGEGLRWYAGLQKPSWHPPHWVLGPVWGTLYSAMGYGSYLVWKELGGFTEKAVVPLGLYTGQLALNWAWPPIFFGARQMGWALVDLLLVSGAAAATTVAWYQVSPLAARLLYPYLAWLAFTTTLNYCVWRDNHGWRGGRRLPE
Chain of [3H]diazepam binding to heart tissue (P30536 2-169 limits assumed): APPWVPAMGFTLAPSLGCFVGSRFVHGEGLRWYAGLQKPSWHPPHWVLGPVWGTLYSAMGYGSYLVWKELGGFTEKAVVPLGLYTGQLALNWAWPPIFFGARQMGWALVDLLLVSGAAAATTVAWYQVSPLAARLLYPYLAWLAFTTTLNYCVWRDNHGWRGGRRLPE

In the case of `CCC(C)N(C)C(=O)c1cc2ccccc2c(-c2ccccc2Cl)n1` (centres unmarked) [PK11195, 1-(2-chlorophenyl)-N-methyl-N-(1-methylpropyl)-3-isoquinoline carboxamide], the “reversal of the Ro5-4864 hypertrophic effect” value in experiment [1] (coincubation of Ro5-4864 with PK11195) is reported as “can be reversed”. In [2], the “antagonism of the positive inotropy induced by diazepam” value was “antagonized”. In addition, the “effect on cardiac function” value in experiment [3] is “depress cardiac function”. Moreover, the “antagonism of the vasodilatory effect of Ro5-4864” value in experiment [4] (setting [13]) is “did not antagonize”. Also, in experiment [5] (setting [14]), the “effect on the Ro5-4864 induced increase in ANP synthesis” value is on record as “prevented”. Besides, the “effect on ANP synthesis” value in [5] (setting [15]) was “no effects”. Further, in experiment [6] (setting [14]), the “effect on the Ro5-4864 induced increase in protein synthesis” value is reported as “prevented”. For the same molecule, in experiment [6] (setting [15]), the “effect on protein synthesis (incorporation of radiolabelled phenylalanine)” value is recorded as “no effects”. Further, in the experiment on human atrial strips, the “antagonism of the depressant effect of Ro5-4864” value is “not antagonized”. Moreover, the “reversal of the effects of Ro5-4864” value in [7] is on record as “reversed”.
With `CN1C(=O)CN=C(c2ccc(Cl)cc2)c2cc(Cl)ccc21` [Ro5-4864], in [1] (summary of Example 2), the “hypertrophic response: increase in protein synthesis, ANP synthesis, transcription of the β-MHC gene reporter” value is “three- to five-fold”. In addition, in [3], the “effect on cardiac function” value was “depress cardiac function”. Further, the coronary flow result in [4] (setting [13]) is recorded as “increase coronary flow”. The “heart rate and left ventricular contractility” value in [4] (setting [13]) is listed as “without affecting”. In addition, the “agonist induced increase in ANP synthesis in the presence of PK11195” value in experiment [5] (setting [16]) was “able to overcome the inhibitory effect of PK11195”. Further, in experiment [5] (setting [17]), the “increase in ANP synthesis” value is “five-fold”. For the same molecule, the “agonist induced increase in protein synthesis in the presence of PK11195” value in [6] (setting [16]) is “able to overcome the inhibitory effect of PK11195”. Moreover, the “increase in protein synthesis (incorporation of radiolabelled phenylalanine)” value in experiment [6] (setting [17]) is “three-fold”. The “depressant effect on the contraction amplitude (negative inotropic effect)” value in the experiment on human atrial strips was 20%. Further, the “cell size / morphology of cardiomyocytes” value in [8] (24 hours of culture, FIG. 10A) was “larger cell size”; in experiment [8] (96 hours of culture, FIGS. 10B and 10C) it was “much larger and adherent to the extracellular matrix”. Besides, the “duration of intracellular action potential and contractility” value (“duration” below) in experiment [7] was “decreased”. Moreover, the “increase in luciferase activity (transcriptional activity from the β-MHC promoter)” value with β-MHC promoter is given as “three-fold”.
`O=C1CN=C(c2ccccc2Cl)c2cc([N+](=O)[O-])ccc2N1` [clonazepam]: the “duration” value in experiment [7] is given as “ineffective”.
Consider `CN1C(=O)CN=C(c2ccccc2)c2cc(Cl)ccc21` [diazepam], for which, in experiment [2], the inotropic effect entry is listed as “transient negative inotropic effect followed by a positive inotropic response”. Besides, in [4] (Langendorf rat heart), the contractile force entry is reported as “increased contractile force”. Also, the vagal tone entry in experiment [9] is “decrease”. Also, in experiment [10], the “potentiation of the actions of adenosine” value is “potentiates”. Also, the “potentiation of the coronary vasodilator action of adenosine” value in [11] is given as “potentiates”. Besides, the “duration” value in experiment [7] is recorded as “less effective”.
Consider `OCCN(CCO)c1nc(N2CCCCC2)c2nc(N(CCO)CCO)nc(N3CCCCC3)c2n1` [dipyridamole], for which the “competition of [3H]diazepam binding” value in [12] is “can compete”.
With “trikontetraneuropeptide: shorter fragment of DBI (fragment 17-50) (KTKPSDEEMLFIYGHYKQATVGDINTERPGMLDF; Triakontatetraneuropeptide; UniProt P07108 17-50, looked up, fragment)”, in the experiment with PTBR, the “selectivity for PTBR relative to DBI” value is recorded as “more selective for PTBR”.
